US8980872B2, “Agent for preventing and/or treating functional gastrointestinal disorder” (Aska Pharmaceutical Co., Ltd., priority 2008, dated 2015)

System: Water Avoidance Stress-Induced Hyperdefecation Model
Test: Inhibition test of the number of stools using water avoidance stress-induced hyperdefecation model
Type: in vivo, rat
Protocol: Each of rats was freely allowed to have an enteral nutritional supplement, ELENTAL (0.25 g/mL; manufactured by Ajinomoto Co., Inc.) contained in a water-feeding bottle for seven days before a treatment with TNBS (2,4,6-trinitrobenzene sulfonic acid). The rats were fasted from the day before the TNBS administration day, and drinking water instead of ELENTAL was contained in the water-feeding bottle. On the day of the TNBS treatment (the rat: 8-week-old), 10 mL of physiological saline was intrarectally injected to the rat under anesthetization with ethyl ether to wash the enteral content. After the washing, the rat was allowed to stand longer than 2 hours, and 1 mL of 5 or 30 mg/head of TNBS in 40% ethanol/physiological saline (vehicle) was applied (injected) through the rectal injection under anesthetization with pentobarbital. Further, a silicone plug was inserted to the anus of the rat to stay the TNBS solution in the injection site, and the surrounding of the anus was fixed with an adhesive cloth elastic bandage (Elastopore). After about four hours of the TNBS treatment, the Elastopore and the silicone plug were removed from the rat, and 10 mL of physiological saline was intrarectally injected to the rat to discharge the enteral content. The animal was conventionally bled for four weeks from the TNBS treatment to recover from colitis. Moreover, to each of positive control rats, alosetron was orally administered singly before one hour of the stress loading.
Moreover, to each of positive control rats, alosetron (10 mg/kg) was orally administered singly before one hour of the water-stress loading. On the day of the measurement of the number of stools (the rat: 12-week-old), the animal was allowed to stand on a block (10 cm×5 cm×10 cm) installed in a water bath (about 50×30×40 cm, water depth: 5 cm) for one hour. However, each of animals on which no water environment stress was loaded (normal group) was allowed to stand in a waterless bath. The total number of stools excreted for the one hour after the animal was allowed to stand in the water bath was measured as the number of stools. Moreover, the nature of stools were compared and examined.

Row | SMILES | number of stools excreted for one hour compared with the control group (alosetron 10 mg/kg orally, single dose one hour before water-stress loading, p<0.001, t-test) | number of stools excreted for one hour compared with the control (rifaximin 100 mg/kg orally for 9 days, rats recovered from TNBS colitis, p<0.001, Dunnett test) | dose dependence of the defecation inhibition effect (rifaximin 6.25, 25 and 100 mg/kg orally for 9 days) | nature of stool (rifaximin-administered group, orally for 9 days) | motility of the intestinal tract (rifaximin-administered group, concluded from number and nature of stools)
1 | Cc1[nH]cnc1CN1CCc2c(c3ccccc3n2C)C1=O [alosetron] | showed a significantly effect compared with the control group | – | – | – | –
2 | CO[C@H]1/C=C/O[C@@]2(C)Oc3c(C)c(O)c4c(O)c(c5c(nc6cc(C)ccn65)c4c3C2=O)NC(=O)/C(C)=C\C=C\[C@H](C)[C@H](O)[C@@H](C)[C@@H](O)[C@@H](C)[C@H](OC(C)=O)[C@@H]1C [rifaximin] | – | decreased the number of stools compared with the control | depended on the dose | normalization in the nature of stool was observed | the motility of the intestinal tract was improved
